Several values for one entry are separate records, joined by “and”; a condition that tells them apart may be missing. Equal entries are not always repeated.
What was measured:
plasma DPP4 activity [1] = biological target: T1, plasma DPP4 activity (Mus musculus, UniProt P28843); assay: Plasma DPP4 activity after oral emodin (DPP4-Glo assay kit); format: in vivo, mice; details: individual animals; for plasma DPP4 activity, raw signal: Balb/c mice; for DPP4 activity, raw signal: ob/ob mice
T1 construct: followed by plasma collection at different time points to measure DPP4 activity in the blood; from tissue; host or cells: mouse plasma (Balb/c and ob/ob mice)
Method: (§1) Balb/c mice (male, six weeks) and ob/ob (-/-) mice (male, six weeks) were purchased from the Shanghai SLAC Laboratory Animal Co. Ltd. (Shanghai, China) and maintained in an air-conditioned room at 20–25 °C under a 12 h dark/light cycle and fed certified standard chow and tap water ad libitum. Experiments were conducted in compliance with the Guide for the Care and Use of Laboratory Animals. Mice were orally administered with emodin (3, 10, or 30 mg /kg) and had their blood collected at 0.5, 1, 2, and 4 h after emodin treatment. The samples were subjected to plasma isolation immediately after collection. Plasma samples were tested for DPP4 activity with a DPP4-Glo assay kit (Promega, Beijing, China) according to the manufacturer’s protocol. The experimental protocol was approved by Animal Care and Use Committee of Xiamen University(XM2015030514).
(§2) To test the inhibitory activity of emodin on DPP4 in vivo, an animal experiment was conducted by oral administration of emodin (3, 10 and 30 mg/kg, P.O., n = 5) to Balb/c mice, followed by plasma collection at different time points to measure DPP4 activity in the blood. Plasma samples were collected at 0, 0.5, 1, 2 and 4 h after the oral dose of emodin, and plasma DPP4 activity was measured with a DPP4-Glo assay kit. […] The lowest does of emodin (3 mg/kg) decreased plasma DPP4 activity from baseline, although these levels rebounded after 1 h, whereas 10 and 30 mg/kg doses of emodin decreased plasma DPP4 activity and maintained the lower levels until 2 h post-treatment (Fig. 4). This dose-dependent manner is probably due to the pharmacokinetics of emodin, and 10 and 30 mg/kg have maximized the pharmacokinetic coverage, while 3 mg/kg emodin is only sufficient to maintain 1 h DPP4 inhibition in vivo. In the subsequent experiment, emodin (30 mg/kg, P.O.) was administered on Balb/C mice (n = 5) or ob/ob (-/-) mice (n = 5). The DPP4 activity, blood glucoselevels and GLP-1 activity were tested 0, 1, 2, 4, 8 h after administration. […] This downregulation maintained 2 h in Balb/C mice, and 4 h in ob/ob (-/-) mice, which rebounded afterwards (Fig. 5A). […] Plasma GLP-1 activity was also measured.

plasma DPP4 activity [2] = biological target: T1, plasma DPP4 activity; assay: as above; format: in vivo, mice; details: for plasma DPP4 activity, raw signal / DPP4 activity, raw signal: individual animals; for DPP4 activity, raw signal: C57BL/6 (head)
DPP9 = biological target: T2, DPP9 (Homo sapiens, UniProt Q86TI2); assay: DPP9 activity assay (BPS Bioscience kit); format: biochemical; details: 100 µM, Well #1-#3;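 on DPP9 assay, Emission (450 nm): 20 ng DPP9 per 100 µl reaction with DPP substrate 1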
T2 construct: purchased BPS Bioscience 800209

[3] = Blood glucose levels after oral emodin; format: in vivo, mice; set-up: Blood glucose: unit not given here; details: 30 mg/kg P.O.; for Blood glucose: ob/ob mice, individual animals
Method: as §1, §2

DPP8 = DPP8 (Homo sapiens, UniProt Q6V1X1); assay: DPP8 activity assay (BPS Bioscience kit); format: biochemical;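 on DPP8 assay, Emission (450 nm): fluorescence read with excitation at 365 nm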
Method: A DPP8 assay kit was purchased from BPS Bioscience (Cat# 800208), and the assay protocol was followed to test for inhibitory activity on DPP8. Briefly, DPP substrate 1 was diluted to make a 100 µM stock solution, and DPP8 protein was diluted in DPP assay buffer to 2 ng/µl (20 ng/reaction). For the tested compounds, 10 µl of diluted DPP8 protein, 5 µl of diluted DPP substrate 1, 84 µl of DPP assay buffer and 1 µl of inhibitor were addedinto the assay system for a total volume of 100 µl. The reaction mixtures were prepared in duplicate on a 96-well plate and incubated at room temperature for 10 min. […]

[4] = Blood glucose levels after oral emodin; format: in vivo, mice; set-up: unit not given here; details: 30 mg/kg P.O., C57BL/6 (head), individual animals
B6C3F1 mice = test system: B6C3F1 mice; set-up: method as in National Toxicology Program, 2001; Wang & Chung, 1997; details: 280–2,500 ppm, ref National Toxicology Program, 2001, Wang & Chung, 1997, cited from earlier work
GLP-1 = assay: Plasma GLP-1 activity after oral emodin; format: in vivo, mice; set-up: GLP-1: unit not given here; details: 30 mg/kg P.O.; for GLP-1: ob/ob mice, individual animals
Method: In the subsequent experiment, emodin (30 mg/kg, P.O.) was administered on Balb/C mice (n = 5) or ob/ob (-/-) mice (n = 5). […] This downregulation maintained 2 h in Balb/C mice, and 4 h in ob/ob (-/-) mice, which rebounded afterwards (Fig. 5A). […] Plasma GLP-1 activity was also measured.

DPP4 = DPP4 (Homo sapiens, UniProt P27487); assay: Dialysis assay followed by DPP4 assay; format: biochemical; details: 0 hr of dialysis; triplicate
[5] = 30 mg/kg P.O., 0 hours (baseline)

Sequence of DPP8 (Q6V1X1 whole entry): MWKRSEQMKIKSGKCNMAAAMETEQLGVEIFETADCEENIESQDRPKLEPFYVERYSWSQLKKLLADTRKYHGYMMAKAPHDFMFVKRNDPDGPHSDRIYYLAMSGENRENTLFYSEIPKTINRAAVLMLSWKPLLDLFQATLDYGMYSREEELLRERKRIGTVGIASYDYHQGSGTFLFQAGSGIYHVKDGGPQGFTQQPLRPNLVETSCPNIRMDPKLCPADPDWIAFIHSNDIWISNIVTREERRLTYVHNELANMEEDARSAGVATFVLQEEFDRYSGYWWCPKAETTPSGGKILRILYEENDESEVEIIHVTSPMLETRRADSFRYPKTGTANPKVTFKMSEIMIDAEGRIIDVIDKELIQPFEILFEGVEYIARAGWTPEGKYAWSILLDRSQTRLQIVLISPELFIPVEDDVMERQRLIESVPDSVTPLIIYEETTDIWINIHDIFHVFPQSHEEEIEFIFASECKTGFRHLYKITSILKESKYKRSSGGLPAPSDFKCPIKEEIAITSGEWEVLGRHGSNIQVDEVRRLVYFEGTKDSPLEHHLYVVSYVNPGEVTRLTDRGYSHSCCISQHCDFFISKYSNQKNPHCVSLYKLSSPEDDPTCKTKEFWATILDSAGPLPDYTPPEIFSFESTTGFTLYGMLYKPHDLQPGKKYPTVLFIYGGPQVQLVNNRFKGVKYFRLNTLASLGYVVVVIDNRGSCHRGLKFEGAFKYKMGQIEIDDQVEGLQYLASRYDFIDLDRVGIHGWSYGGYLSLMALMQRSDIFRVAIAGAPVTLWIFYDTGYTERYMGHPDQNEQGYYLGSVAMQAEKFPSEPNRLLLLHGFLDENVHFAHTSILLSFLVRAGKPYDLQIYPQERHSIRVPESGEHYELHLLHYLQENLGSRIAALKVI
T2 sequence (Q86TI2 whole entry): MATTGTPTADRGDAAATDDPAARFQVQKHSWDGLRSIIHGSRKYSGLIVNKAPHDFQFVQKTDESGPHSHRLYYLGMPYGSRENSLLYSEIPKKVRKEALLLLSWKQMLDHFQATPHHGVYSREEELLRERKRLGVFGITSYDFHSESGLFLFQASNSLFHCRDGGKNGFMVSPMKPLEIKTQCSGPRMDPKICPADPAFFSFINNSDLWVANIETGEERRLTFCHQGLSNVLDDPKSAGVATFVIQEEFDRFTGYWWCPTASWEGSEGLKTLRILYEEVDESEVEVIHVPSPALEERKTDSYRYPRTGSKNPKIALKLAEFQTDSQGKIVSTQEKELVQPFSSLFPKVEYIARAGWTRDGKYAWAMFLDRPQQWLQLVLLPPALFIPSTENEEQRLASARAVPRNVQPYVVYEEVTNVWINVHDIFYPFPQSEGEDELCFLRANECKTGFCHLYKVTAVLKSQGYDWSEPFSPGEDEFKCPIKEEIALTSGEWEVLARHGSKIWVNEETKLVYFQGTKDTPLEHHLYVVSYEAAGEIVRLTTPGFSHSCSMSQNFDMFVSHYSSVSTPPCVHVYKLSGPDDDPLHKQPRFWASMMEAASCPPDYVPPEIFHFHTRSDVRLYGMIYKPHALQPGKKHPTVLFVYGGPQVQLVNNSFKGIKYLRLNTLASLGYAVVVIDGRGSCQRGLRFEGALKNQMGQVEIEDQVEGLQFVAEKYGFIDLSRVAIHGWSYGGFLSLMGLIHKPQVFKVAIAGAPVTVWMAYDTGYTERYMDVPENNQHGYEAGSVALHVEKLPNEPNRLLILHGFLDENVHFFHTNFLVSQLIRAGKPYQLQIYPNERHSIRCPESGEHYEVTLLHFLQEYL
T1 sequence (P28843 37-760 limits assumed): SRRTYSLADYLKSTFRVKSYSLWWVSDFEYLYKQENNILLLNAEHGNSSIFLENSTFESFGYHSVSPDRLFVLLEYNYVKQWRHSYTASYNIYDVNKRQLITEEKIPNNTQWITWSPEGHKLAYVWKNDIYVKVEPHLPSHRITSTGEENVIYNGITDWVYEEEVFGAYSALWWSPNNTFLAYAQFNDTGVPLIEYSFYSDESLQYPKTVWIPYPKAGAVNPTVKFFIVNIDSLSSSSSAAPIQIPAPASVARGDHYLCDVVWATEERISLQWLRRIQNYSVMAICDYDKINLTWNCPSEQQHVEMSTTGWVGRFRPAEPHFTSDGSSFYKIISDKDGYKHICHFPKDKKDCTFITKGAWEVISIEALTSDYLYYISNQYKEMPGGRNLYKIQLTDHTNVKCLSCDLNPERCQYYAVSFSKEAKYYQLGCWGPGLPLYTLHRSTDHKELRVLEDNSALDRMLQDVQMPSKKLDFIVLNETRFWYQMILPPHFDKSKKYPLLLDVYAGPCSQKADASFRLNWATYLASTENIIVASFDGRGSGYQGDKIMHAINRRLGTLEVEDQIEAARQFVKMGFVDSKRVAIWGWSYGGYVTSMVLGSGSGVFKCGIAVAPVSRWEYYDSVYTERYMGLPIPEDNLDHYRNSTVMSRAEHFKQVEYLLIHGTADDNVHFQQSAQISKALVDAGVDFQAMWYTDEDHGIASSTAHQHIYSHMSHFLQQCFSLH
Sequence of DPP4 (P27487 whole entry, species assumed): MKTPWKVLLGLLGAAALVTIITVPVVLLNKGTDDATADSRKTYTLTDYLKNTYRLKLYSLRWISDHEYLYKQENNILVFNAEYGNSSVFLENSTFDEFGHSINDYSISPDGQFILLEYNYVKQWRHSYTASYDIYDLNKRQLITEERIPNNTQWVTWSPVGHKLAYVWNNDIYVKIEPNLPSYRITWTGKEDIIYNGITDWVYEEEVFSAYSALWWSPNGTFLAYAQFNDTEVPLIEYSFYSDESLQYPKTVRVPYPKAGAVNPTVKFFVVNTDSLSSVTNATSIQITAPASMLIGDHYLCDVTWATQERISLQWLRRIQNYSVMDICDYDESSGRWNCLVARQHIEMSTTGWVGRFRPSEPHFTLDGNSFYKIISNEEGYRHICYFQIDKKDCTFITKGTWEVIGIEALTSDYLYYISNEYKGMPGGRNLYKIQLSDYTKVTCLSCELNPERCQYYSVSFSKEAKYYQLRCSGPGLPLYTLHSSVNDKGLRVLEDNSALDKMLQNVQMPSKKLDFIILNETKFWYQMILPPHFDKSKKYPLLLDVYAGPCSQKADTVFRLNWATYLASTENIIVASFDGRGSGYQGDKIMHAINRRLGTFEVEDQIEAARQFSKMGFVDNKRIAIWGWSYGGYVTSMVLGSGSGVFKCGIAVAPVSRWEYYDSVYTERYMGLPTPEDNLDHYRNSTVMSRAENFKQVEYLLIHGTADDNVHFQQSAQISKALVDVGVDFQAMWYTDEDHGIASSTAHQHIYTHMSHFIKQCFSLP

Cc1cc(O)c2c(c1)C(=O)c1cc(O)cc(O)c1C2=O [Emodin]
plasma DPP4 activity, raw signal (plasma DPP4 activity [1]; 3 mg/kg P.O., time 1 h): 213620 and 121520 and 101880
plasma DPP4 activity, raw signal (plasma DPP4 activity [1]; 10 mg/kg P.O., time 0.5 h): 241067 and 195640 and 202693
DPP4 activity, raw signal (plasma DPP4 activity [1]; [5]): 3401200 and 3668100 and 3319500 and 3595400 and 3453300
DPP4 activity, raw signal (plasma DPP4 activity [1]; 30 mg/kg P.O., 1 hours): 3125000 and 3575300 and 2433200 and 3311900 and 2854200
DPP4 activity, raw signal (plasma DPP4 activity [1]; 30 mg/kg P.O., 2 hours): 3363400 and 2959900 and 2928700 and 2749100
DPP4 activity, raw signal (plasma DPP4 activity [1]; 30 mg/kg P.O., 4 hours): 3275000 and 2989300 and 2592200 and 2835500 and 2877800
DPP4 activity, raw signal (plasma DPP4 activity [1]; 30 mg/kg P.O., 8 hours): 3489100 and 3461100 and 2912800 and 3032000 and 2847400
plasma DPP4 activity, raw signal (plasma DPP4 activity [1]; 30 mg/kg P.O., time 2 h): 196547 and 112320 and 158453
plasma DPP4 activity, raw signal (plasma DPP4 activity [1]; 30 mg/kg P.O., time 4 h): 339907 and 323187 and 357187
time for which plasma DPP4 activity stayed decreased (plasma DPP4 activity [2]; 3 mg/kg P.O., Balb/c mice, rebounded afterwards): 1 h
plasma DPP4 activity, raw signal (plasma DPP4 activity [2]; 3 mg/kg P.O., time 0 h (baseline), Balb/c mice): 200500 and 223040 and 210853
plasma DPP4 activity, raw signal (plasma DPP4 activity [2]; 3 mg/kg P.O., time 0.5 h, Balb/c mice): 157120 and 186480 and 184560
plasma DPP4 activity, raw signal (plasma DPP4 activity [2]; 3 mg/kg P.O., time 2 h, Balb/c mice): 291827 and 237493 and 317253
plasma DPP4 activity, raw signal (plasma DPP4 activity [2]; 3 mg/kg P.O., time 4 h, Balb/c mice): 377573 and 331360 and 321880
plasma DPP4 activity, raw signal (plasma DPP4 activity [2]; 10 mg/kg P.O., time 0 h (baseline), Balb/c mice): 349733 and 267840 and 314147
plasma DPP4 activity, raw signal (plasma DPP4 activity [2]; 10 mg/kg P.O., time 1 h, Balb/c mice): 158860 and 133520 and 164280
plasma DPP4 activity, raw signal (plasma DPP4 activity [2]; 10 mg/kg P.O., time 2 h, Balb/c mice): 158760 and 116813 and 222440
plasma DPP4 activity, raw signal (plasma DPP4 activity [2]; 10 mg/kg P.O., time 4 h, Balb/c mice): 367160 and 355600 and 350787
time for which downregulation of DPP4 activity was maintained (plasma DPP4 activity [2]; 30 mg/kg P.O., Balb/C mice, n = 5): 2 h
DPP4 activity, raw signal (plasma DPP4 activity [2]; [5]): 2962300 and 3555100 and 2704100 and 2803100 and 3111100
DPP4 activity, raw signal (plasma DPP4 activity [2]; 30 mg/kg P.O., 1 hours): 2755900 and 3040800 and 2268700 and 2388700 and 2836800
DPP4 activity, raw signal (plasma DPP4 activity [2]; 30 mg/kg P.O., 2 hours): 3055900 and 3015200 and 2510000 and 2257000 and 2971200
DPP4 activity, raw signal (plasma DPP4 activity [2]; 30 mg/kg P.O., 4 hours): 2708000 and 3031400 and 2814800 and 2664500 and 2844400
DPP4 activity, raw signal (plasma DPP4 activity [2]; 30 mg/kg P.O., 8 hours): 3130600 and 3310000 and 2020300 and 3224400 and 3166700
effect on DPP4 activity (plasma DPP4 activity [2]; 30 mg/kg P.O., both Balb/C mice and ob/ob (-/-) mice): significant downregulation
time for which downregulation of DPP4 activity was maintained (plasma DPP4 activity [2]; 30 mg/kg P.O., ob/ob (-/-) mice, n = 5): 4 h
plasma DPP4 activity, raw signal (plasma DPP4 activity [2]; 30 mg/kg P.O., time 0 h (baseline), Balb/c mice): 290800 and 216573 and 224480
plasma DPP4 activity, raw signal (plasma DPP4 activity [2]; 30 mg/kg P.O., time 0.5 h, Balb/c mice): 175387 and 222147 and 170307
plasma DPP4 activity, raw signal (plasma DPP4 activity [2]; 30 mg/kg P.O., time 1 h, Balb/c mice): 159040 and 152000 and 181707
effect on plasma DPP4 activity (plasma DPP4 activity [2]; 3, 10 and 30 mg/kg, P.O., Balb/c mice, n = 5): decreased the plasma DPP4 activity in a dose-dependent manner
time until which lower plasma DPP4 activity was maintained (plasma DPP4 activity [2]; 10 and 30 mg/kg P.O., Balb/c mice): 2 h
DPP9 assay, Emission (450 nm) (DPP9): 47887 and 46825 and 46023
DPP9 activity (DPP9; DMSO = Ctrl): 98.3 % of Ctrl and 96.1 % of Ctrl and 94.5 % of Ctrl
effect on blood glucose levels from baseline ([3]; both Balb/C mice and ob/ob (-/-) mice): significantly downregulated
time for which downregulation of blood glucose was maintained ([3]; both Balb/C mice and ob/ob (-/-) mice, baseline again at 8 h): 4 h
Blood glucose ([3]; 0 hours (baseline)): 18.6 and 13.3 and 11.5 and 12.1 and 14.4
Blood glucose ([3]; 1 hours): 9.4 and 11.3 and 13.1 and 10.9 and 12
Blood glucose ([3]; 2 hours): 11 and 9.2 and 8.1 and 9.5 and 10.9
Blood glucose ([3]; 4 hours): 8 and 10.3 and 8.2 and 7.3 and 9.2
Blood glucose ([3]; 8 hours): 14.7 and 14.2 and 13.9 and 12.8 and 13.1
DPP8 assay, Emission (450 nm) (DPP8; 100 µM, Exp #1-#5): 25326 and 25088 and 25860 and 47385 and 48311
DPP8 activity (DPP8; 100 µM, Exp #1-#5, DMSO = Ctrl): 91.7 % of Ctrl and 91.1 % of Ctrl and 90.2 % of Ctrl and 93.0 % of Ctrl and 89.9 % of Ctrl
activity against DPP8 (DPP8; tested at 100 µM): without inhibiting
Blood glucose ([4]; 0 hours (baseline)): 15.5 and 10.4 and 10.9 (2×) and 11.2
Blood glucose ([4]; 1 hours): 10.8 (2×) and 12.2 and 9.3 and 9.7
Blood glucose ([4]; 2 hours): 9.3 and 9.7 and 8.4 and 8.3 and 8
Blood glucose ([4]; 4 hours): 8.3 and 7.4 and 7.6 and 9.1 and 7.9
Blood glucose ([4]; 8 hours): 15.9 and 11.5 and 12.6 (2×) and 15.3
carcinogenic activity (B6C3F1 mice; female B6C3F1 mice): no evidence of carcinogenic activity
nephropathy (B6C3F1 mice; female mice): increased incidences
renal tubule pigmentation (B6C3F1 mice; male and female mice): increased incidences
effect on plasma GLP-1 activity (GLP-1; Balb/C and ob/ob (-/-) mice): marginal effect
GLP-1 (GLP-1; 0 hours (baseline)): 1.6192 and 1.6714 and 1.7758 and 1.3843 and 3.4984
GLP-1 (GLP-1; 1 hours): 2.9503 and 1.4365 and 2.8459 and 1.8541 and 2.8981
GLP-1 (GLP-1; 2 hours): 3.5245 and 3.4201 and 0.5491 and 2.4022 and 2.2456
GLP-1 (GLP-1; 4 hours): 0.9667 and 2.1673 and 1.2538 and 1.5148 and 2.9503
GLP-1 (GLP-1; 8 hours): 3.655 and 0.784 and 1.2277 and 3.1852
DPP4 activity in dialysis assay (DPP4): 55 % of DMSO and 58 % of DMSO and 62 % of DMSO
DPP4 activity in dialysis assay, raw signal (DPP4): 2750000 RLU and 2900000 RLU and 3100000 RLU

From article PMC5428354, “Screening of a natural compound library identifies emodin, a natural compound from Rheum palmatum Linn that inhibits DPP4” (PeerJ, 2017)
